Values quoted from earlier work, collected in patent US9044480B1, “Compositions and methods for treating HCV” (priority 2011, dated 2015).

Assays:
HCV R155K mutation = conditions: clinical trials and replicon cell assays (Bartels et al.; Lu et al.; Zhou et al.); cited from earlier work
HCV = conditions: R155K (danoprevir) or R155K/D168V (vaniprevir) mutants detected; cited from earlier work

Compound	Resistance conferred by the R155K mutation (HCV R155K mutation)	Viral load rebound in patients receiving treatment (HCV)
CC(C)(C)OC(=O)N[C@H]1CCCCC/C=C\[C@@H]2C[C@@]2(C(=O)NS(=O)(=O)C2CC2)NC(=O)[C@@H]2C[C@@H](OC(=O)N3Cc4cccc(F)c4C3)CN2C1=O [danoprevir]	high-level resistant	Viral load rebound
CC[C@@H]1C[C@]1(NC(=O)[C@@H]1C[C@@H]2CN1C(=O)[C@H](C(C)(C)C)NC(=O)OCC(C)(C)CCCCc1cccc3c1CN(C3)C(=O)O2)C(=O)NS(=O)(=O)C1CC1 [vaniprevir]		viral load rebound
COc1ccc2c(O[C@@H]3C[C@H]4C(=O)N[C@]5(C(=O)O)C[C@H]5/C=C\CCCCC[C@H](NC(=O)OC5CCCC5)C(=O)N4C3)cc(-c3csc(NC(C)C)n3)nc2c1 [BILN 2061]	high-level resistant	
